Data as given in patent US9556179B2 (BRISTOL-MYERS SQUIBB COMPANY, priority 2012, dated 2017).

Tests used:
CK1ε = CK1ε (Homo sapiens (Human), UniProt P49674); assay: CK1ε kinase assay (Caliper LABCHIP electrophoretic separation of fluoresceinated peptide substrate and product); type: biochemical; conditions: 200 pM enzyme, 50 μM ATP, 22 hours at room temperature
Summary of the method: (§1)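 Reactions ran 22 hours at room temperature and were stopped with EDTA. Phosphorylated product and unphosphorylated substrate were then separated electrophoretically. Compounds were tested at eleven concentrations, and IC50 values came from non-linear regression.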

CK1δ = CK1δ (Homo sapiens (Human), UniProt P48730); assay: CK1δ kinase assay (Caliper LABCHIP electrophoretic separation of fluoresceinated peptide substrate and product); type: biochemical; conditions: 200 pM enzyme, 50 μM ATP, 22 hours at room temperature
Chain of CK1δ (P48730 whole entry): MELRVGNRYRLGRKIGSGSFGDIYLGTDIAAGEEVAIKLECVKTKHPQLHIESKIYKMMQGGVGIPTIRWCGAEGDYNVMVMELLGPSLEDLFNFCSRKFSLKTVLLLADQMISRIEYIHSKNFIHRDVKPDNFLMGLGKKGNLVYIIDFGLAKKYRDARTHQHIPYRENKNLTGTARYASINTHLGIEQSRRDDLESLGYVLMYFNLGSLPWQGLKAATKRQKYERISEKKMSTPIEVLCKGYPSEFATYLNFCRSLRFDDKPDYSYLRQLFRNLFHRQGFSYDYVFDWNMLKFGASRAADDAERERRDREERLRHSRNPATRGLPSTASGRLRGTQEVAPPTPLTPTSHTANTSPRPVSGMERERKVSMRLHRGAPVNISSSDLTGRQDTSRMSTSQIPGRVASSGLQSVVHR
Summary of the method: as §1

Chain of CK1ε (P49674 whole entry): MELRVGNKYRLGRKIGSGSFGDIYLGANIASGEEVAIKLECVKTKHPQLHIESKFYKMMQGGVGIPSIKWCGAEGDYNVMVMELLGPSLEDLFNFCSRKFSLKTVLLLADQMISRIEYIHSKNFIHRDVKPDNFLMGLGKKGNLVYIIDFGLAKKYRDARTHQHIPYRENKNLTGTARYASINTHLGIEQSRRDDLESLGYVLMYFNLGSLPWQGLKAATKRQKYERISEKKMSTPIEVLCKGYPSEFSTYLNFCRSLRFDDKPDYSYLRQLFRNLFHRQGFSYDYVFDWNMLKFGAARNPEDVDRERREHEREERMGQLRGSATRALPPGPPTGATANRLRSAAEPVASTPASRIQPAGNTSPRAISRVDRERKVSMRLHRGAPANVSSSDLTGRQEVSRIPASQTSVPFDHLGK

`CC(C)(C)C(=O)Nc1cn2nc(-c3c(-c4ccc(F)cc4)ncn3CCO)ccc2n1` [Compound 274, N-(6-(4-(4-fluorophenyl)-1-(2-hydroxyethyl)-1H-imidazol-5-yl)imidazo[1,2-b]pyridazin-2-yl)pivalamide] was tested, and the IC50 (CK1ε) was 8.98 nM and the IC50 (CK1δ) was 0.635 nM.
In the case of `CC(C)(C)C(=O)Nc1cn2nc(-c3c(-c4ccc(F)cc4)ncn3Cc3ccccc3)ccc2n1` [Compound 275, N-(6-(1-benzyl-4-(4-fluorophenyl)-1H-imidazol-5-yl)imidazo[1,2-b]pyridazin-2-yl)pivalamide], the IC50 (CK1ε) is reported as 4.23 nM and the IC50 (CK1δ) is reported as 0.545 nM.
In the case of `CC(C)(C)C(=O)Nc1cn2nc(-c3[nH]cnc3-c3ccc(F)cc3)ccc2n1` [Compound 276, N-(6-(4-(4-fluorophenyl)-1H-imidazol-5-yl)imidazo[1,2-b]pyridazin-2-yl)pivalamide], the IC50 (CK1ε) is reported as 35.9 nM and the IC50 (CK1δ) is reported as 3.88 nM.
Compound `CC(C)(C)C(=O)Nc1cn2nc(-c3c(-c4ccc(F)cc4)ncn3CC3CNC(=O)C3)ccc2n1` (centres unmarked) [Compound 277, N-(6-(4-(4-fluorophenyl)-1-((5-oxo-pyrrolidin-3-yl)methyl)-1H-imidazol-5-yl)imidazo[1,2-b]pyridazin-2-yl)pivalamide] has an IC50 (CK1ε) of 3.82 nM and an IC50 (CK1δ) of 0.238 nM.
For `Cc1cc(Cn2cnc(-c3ccc(F)cc3)c2-c2ccc3nc(NC(=O)C(C)(C)C)cn3n2)no1` [Compound 278, N-(6-(4-(4-fluorophenyl)-1-((5-methyl-isoxazol-3-yl)ylmethyl)-1H-imidazol-5-yl)imidazo[1,2-b]pyridazin-2-yl)pivalamide], the IC50 (CK1ε) was 5.43 nM and the IC50 (CK1δ) was 0.444 nM.
`CC(C)(C)C(=O)Nc1cn2nc(-c3c(-c4ccc(F)cc4)ncn3Cc3ccoc3)ccc2n1` [Compound 279, N-(6-(4-(4-fluorophenyl)-1-(furan-3-ylmethyl)-1H-imidazol-5-yl)imidazo[1,2-b]pyridazin-2-yl)pivalamide] showed an IC50 (CK1ε) of 0.887 nM and an IC50 (CK1δ) of 0.169 nM.
Compound `COCCn1cnc(-c2ccc(F)cc2)c1-c1ccc2nc(NC(=O)C(C)(C)C)cn2n1` [Compound 280, N-(6-(4-(4-fluorophenyl)-1-(2-methoxy-ethyl)-1H-imidazol-5-yl)imidazo[1,2-b]pyridazin-2-yl)pivalamide] has an IC50 (CK1ε) of 2.49 nM and an IC50 (CK1δ) of 0.52 nM.
Work on `CC(C)(C)C(=O)Nc1cn2nc(-c3c(-c4ccc(F)cc4)ncn3Cc3cccnc3)ccc2n1` [Compound 281, N-(6-(4-(4-fluorophenyl)-1-(pyridin-3-ylmethyl)-1H-imidazol-5-yl)imidazo[1,2-b]pyridazin-2-yl)pivalamide] yielded an IC50 (CK1ε) of 7.79 nM and an IC50 (CK1δ) of 1.81 nM.
`CC(C)(C)C(=O)Nc1cn2nc(-c3c(-c4ccc(F)cc4)ncn3CCc3cccnc3)ccc2n1` [Compound 282, N-(6-(4-(4-fluorophenyl)-1-(2-(pyridin-3-yl)ethyl)-1H-imidazol-5-yl)imidazo[1,2-b]pyridazin-2-yl)pivalamide] was tested, and the IC50 (CK1ε) was 13.2 nM and the IC50 (CK1δ) was 0.766 nM.
`Cn1cnc(-c2ccc(F)cc2)c1-c1ccc2nc(NC(=O)C(C)(C)C)cn2n1` [Compound 283, N-(6-(4-(4-fluorophenyl)-1-methyl-1H-imidazol-5-yl)imidazo[1,2-b]pyridazin-2-yl)pivalamide] showed an IC50 (CK1ε) of 7.62 nM and an IC50 (CK1δ) of 0.545 nM.
With `Cc1nc(-c2ccc(F)cc2)c(-c2ccc3nc(NC(=O)c4ccnc(F)c4)cn3n2)n1CC(F)F` [Compound 284, N-(6-(1-(2,2-Difluoroethyl)-4-(4-fluorophenyl)-2-methyl-1H-imidazol-5-yl)imidazo[1,2b]-pyridazin-2-yl)-2-fluoroisonicotinamide] the IC50 (CK1ε) was 2.02 nM and the IC50 (CK1δ) was 0.384 nM.
Compound `O=C(Nc1cn2nc(-c3c(-c4ccc(F)cc4)nc(C4CC4)n3CC(F)F)ccc2n1)c1ccnc(F)c1` [Compound 285] has an IC50 (CK1ε) of 1.22 nM and an IC50 (CK1δ) of 0.245 nM.
For `CCc1nc(-c2ccc(F)cc2)c(-c2ccc3nc(NC(=O)c4ccnc(F)c4)cn3n2)n1CC(F)F` [Compound 286, N-(6-(1-(2,2-difluoroethyl)-2-ethyl-4-(4-fluorophenyl)-1H-imidazol-5-yl)imidazo[1,2-b]pyridazin-2-yl)-2-fluoroisonicotinamide], the IC50 (CK1ε) was 6.78 nM and the IC50 (CK1δ) was 0.727 nM.
Compound `CC(C)c1nc(-c2ccc(F)cc2)c(-c2ccc3nc(NC(=O)c4ccnc(F)c4)cn3n2)n1CC(F)F` [Compound 287, N-(6-(1-(2,2-difluoroethyl)-4-(4-fluorophenyl)-2-isopropyl-1H-imidazol-5-yl)imidazo[1,2-b]pyridazin-2-yl)-2-fluoroiso-nicotinamide] has an IC50 (CK1ε) of 9.17 nM and an IC50 (CK1δ) of 0.776 nM.
Compound `Cc1nc(-c2ccc(F)cc2)c(-c2ccc3nc(NC(=O)c4ccnc(F)c4)cn3n2)n1CCF` [Compound 288, 2-Fluoro-N-(6-(1-(2-fluoroethyl)-4-(4-fluorophenyl)-2-methyl-1H-imidazol-5-yl)imidazo[1,2-b]pyridazin-2-yl)isonicotinamide] has an IC50 (CK1ε) of 0.222 nM and an IC50 (CK1δ) of 0.11 nM.
`Cc1nc(-c2ccc(F)cc2)c(-c2ccc3nc(NC(=O)c4ccnc(F)c4)cn3n2)n1CC(F)(F)F` [Compound 289, 2-fluoro-N-(6-(4-(4-fluorophenyl)-2-methyl-1-(2,2,2-trifluoroethyl)-1H-imidazol-5-yl)imidazo[1,2-b]pyridazin-2-yl)isonicotinamide] was tested, and the IC50 (CK1ε) was 1.27 nM and the IC50 (CK1δ) was 0.613 nM.
`Cc1nc(-c2ccc(F)c(F)c2)c(-c2ccc3nc(NC(=O)c4ccnc(F)c4)cn3n2)n1CCF` [Compound 290, N-(6-(4-(3,4-difluorophenyl)-1-(2-fluoroethyl)-2-methyl-1H-imidazol-5-yl)imidazo[1,2-b]pyridazin-2-yl)-2-fluoroisonicotinamide] gave an IC50 (CK1ε) of 1.89 nM and an IC50 (CK1δ) of 0.412 nM.
`Cc1nc(-c2ccc(F)c(F)c2)c(-c2ccc3nc(NC(=O)c4ccnc(F)c4)cn3n2)n1CC(F)F` [Compound 291, N-(6-(1-(2,2-difluoroethyl)-4-(3,4-difluorophenyl)-2-methyl-1H-imidazol-5-yl)imidazo[1,2-b]pyridazin-2-yl)-2-fluoroiso-nicotinamide] showed an IC50 (CK1ε) of 2.64 nM and an IC50 (CK1δ) of 0.388 nM.
With `CCn1c(C)nc(-c2ccc(Cl)cc2)c1-c1ccc2nc(NC(=O)c3ccnc(F)c3)cn2n1` [Compound 292, N-(6-(4-(4-chlorophenyl)-1-ethyl-2-methyl-1H-imidazol-5-yl)imidazo[1,2-b]pyridazin-2-yl)-2-fluoroisonicotinamide] the IC50 (CK1ε) was 1.81 nM and the IC50 (CK1δ) was 0.208 nM.
With `Cc1nc(-c2ccc(Cl)cc2)c(-c2ccc3nc(NC(=O)c4ccnc(F)c4)cn3n2)n1CCF` [Compound 293, N-(6-(4-(4-chlorophenyl)-1-(2-fluoroethyl)-2-methyl-1H-imidazol-5-yl)imidazo[1,2-b]pyridazin-2-yl)-2-fluoroisonicotinamide] the IC50 (CK1ε) was 1.28 nM and the IC50 (CK1δ) was 0.109 nM.
Work on `Cc1nc(-c2ccc(Cl)cc2)c(-c2ccc3nc(NC(=O)c4ccnc(F)c4)cn3n2)n1CC(F)F` [Compound 294, N-(6-(4-(4-chlorophenyl)-1-(2,2-difluoroethyl)-2-methyl-1H-imidazol-5-yl)imidazo[1,2-b]pyridazin-2-yl)-2-fluoroiso-nicotinamide] yielded an IC50 (CK1ε) of 4.03 nM and an IC50 (CK1δ) of 0.208 nM.
`Cc1nc(-c2ccc(Cl)cc2)c(-c2ccc3nc(NC(=O)c4ccnc(F)c4)cn3n2)n1CC(F)(F)F` [Compound 295, N-(6-(4-(4-chlorophenyl)-2-methyl-1-(2,2,2-trifluoroethyl)-1H-imidazol-5-yl)imidazo[1,2-b]pyridazin-2-yl)-2-fluoroisonicotin-amide] showed an IC50 (CK1ε) of 5.95 nM and an IC50 (CK1δ) of 0.126 nM.
